# pEC50: −log10 of the molar value. Structures can show the parent of a compound that is named as a salt. Where two headings read alike, the source gives them in different places.
# What was measured:
# [1] = Stability test in rat liver microsomes; assay type: in vitro ADME
# Method: At 37°C, 1 µM of the test compound was incubated with rat liver microsomes (0.5 mg/mL) supplemented with an NADPH regeneration system for 5, 10, 20, 30 and 60 minutes, and then the LC-MS/MS method was used to detect the concentration of the test compound in the resulting sample. The half-life (T1/2) and intrinsic clearance (CLint(mic)) of the compound in rat liver microsome solution were obtained by calculating the remaining percentage of the compound at the corresponding time points.
# [2] = Rat pharmacokinetic assay; assay type: in vivo, SD rats; conditions: rats, i.g., 10 mg/kg, plasma
# Method: Experimental animals: male SD rats, 180-200 g, purchased from Chengdu Dossy Experimental Animals Co., Ltd.
# Experimental design: On the day of the experiment, the SD rats were randomly grouped according to their body weight. The animals were fasted but with water available overnight before the administration, and fed 4 h after the administration.
# Blood was taken from the orbits at specified time points, and placed in an EDTAK2 centrifuge tube. The tube was centrifuged at 5000 rpm for 10 min, and the plasma was collected.
# Blood sampling time points for the intravenous administration group: 0, 5 min, 15 min, 30 min, 1 h, 2 h, 4 h, 7 h and 24 h; blood sampling time points for the intragastric administration group: 0, 5 min, 15 min, 30 min, 1 h, 2 h, 4 h, 7 h and 24 h. Before analysis and detection, all the samples were stored at -60°C or lower. The samples were analyzed quantitatively by LC-MS/MS. Table 4-1 PK data of test compound (i.e., drug) in rats
# [3] = biological target: T1, soluble guanylate cyclase (sGC) (Homo sapiens, UniProt Q02108+Q02153); assay: In vitro detection experiment for soluble guanylate cyclase (sGC) activity (TR-FRET cGMP); assay type: biochemical; conditions: enzymatic agonism and/or activation of sGC; 1.5 nM sGC, 5 µM GTP, 100 µM DETA NONOate
# T1 construct: purchased ICE S2304F-H07SH2
# T1 sequence (Q02153 1-619): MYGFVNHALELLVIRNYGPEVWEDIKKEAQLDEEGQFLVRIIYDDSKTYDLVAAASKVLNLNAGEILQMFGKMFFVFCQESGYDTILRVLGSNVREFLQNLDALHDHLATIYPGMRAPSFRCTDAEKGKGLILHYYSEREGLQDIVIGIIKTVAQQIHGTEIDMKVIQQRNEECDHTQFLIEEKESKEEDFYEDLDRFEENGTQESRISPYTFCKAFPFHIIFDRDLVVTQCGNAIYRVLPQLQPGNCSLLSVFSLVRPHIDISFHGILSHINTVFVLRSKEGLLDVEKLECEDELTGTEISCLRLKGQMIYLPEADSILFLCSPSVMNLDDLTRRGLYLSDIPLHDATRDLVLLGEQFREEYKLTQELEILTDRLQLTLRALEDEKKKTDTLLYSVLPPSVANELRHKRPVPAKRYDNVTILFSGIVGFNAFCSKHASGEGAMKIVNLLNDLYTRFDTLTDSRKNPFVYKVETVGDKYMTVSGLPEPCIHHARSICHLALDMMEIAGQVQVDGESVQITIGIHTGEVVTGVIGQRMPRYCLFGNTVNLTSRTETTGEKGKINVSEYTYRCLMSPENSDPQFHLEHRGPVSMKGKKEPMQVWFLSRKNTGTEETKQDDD
# T1 sequence (Q02108 1-690): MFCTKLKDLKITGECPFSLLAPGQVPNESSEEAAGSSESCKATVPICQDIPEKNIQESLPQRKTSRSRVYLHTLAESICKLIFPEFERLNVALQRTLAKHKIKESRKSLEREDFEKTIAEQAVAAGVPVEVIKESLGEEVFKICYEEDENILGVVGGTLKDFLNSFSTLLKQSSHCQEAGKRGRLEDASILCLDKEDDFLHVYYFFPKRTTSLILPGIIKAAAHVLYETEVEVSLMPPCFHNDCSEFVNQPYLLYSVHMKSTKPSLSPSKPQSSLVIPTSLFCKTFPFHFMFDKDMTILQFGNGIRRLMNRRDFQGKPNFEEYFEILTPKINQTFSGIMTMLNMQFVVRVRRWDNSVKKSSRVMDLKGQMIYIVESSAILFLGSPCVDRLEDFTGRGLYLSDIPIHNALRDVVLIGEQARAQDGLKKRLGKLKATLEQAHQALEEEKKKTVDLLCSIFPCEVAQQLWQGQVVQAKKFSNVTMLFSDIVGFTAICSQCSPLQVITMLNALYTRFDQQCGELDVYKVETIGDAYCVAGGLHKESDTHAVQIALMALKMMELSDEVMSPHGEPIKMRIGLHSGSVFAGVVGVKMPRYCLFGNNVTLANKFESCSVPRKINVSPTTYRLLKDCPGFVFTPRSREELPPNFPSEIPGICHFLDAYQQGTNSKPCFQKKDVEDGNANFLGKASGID
# Method: First, 100 nL of the compounds at different concentrations were transferred to a 384-well reaction plate (Greiner, Cat. No. 784075) using Echo 655 (LABCYTE, Cat # 655), with the final DMSO concentration of 1% in the reaction mixture; 2 µL of sGC (ICE, Cat. No. S2304F-H07SH2) was added to the 384-well reaction plate, and the mixture was centrifuged at 1000 rpm for 1 min; and then 1 µL of DETA NONOate was added, and the mixture was incubated at 37°C for 10 min. After the incubation was completed, 2 µL of GTP was added, and the mixture was centrifuged at 1000 rpm for 1 min and reacted at 37°C for 60 min. In the reaction system, the final concentrations of sGC, GTP, and DETA NONOate were 1.5 nM, 5 µM, and 100 µM, respectively. After the reaction was completed, 5 µL of the test mixture (PerkinElmer, Cat. No. 62GM2PEG) was added, and the mixture was incubated at room temperature for 60 min. The TR-FRET signal (Ratio: 665/620 nm) was read using a microplate reader (BMG, Cat. No. PHERAstar FSX). A nonlinear regression curve was fitted using GraphPad Prism software, and EC50 values were calculated. Compound A (Example 1 in WO 2010065275) was used as a positive reference compound. The activation rate was calculated according to Equation 2-1, where Low control represents the TR-FRET signal value of 1 µM compound A, and High control represents the TR-FRET signal value in the DMSO well. Stimulation% = (aveHighcontrol−cpdwell)/(ave High control−ave Low; control)*100% [formula] Table 2-1 Results of enzymatic agonism and/or activation of test compounds on soluble guanylate cyclase (sGC).
# [4] = Mouse pharmacokinetic assay; assay type: in vivo, ICR mice; conditions: mice, i.g., 10 mg/kg, plasma
# Method: Experimental objective: In this experiment, a single dose of test compounds was administered to ICR mice intravenously and intragastrically, the concentrations of the test compounds in the plasma of mice were measured, and the pharmacokinetic characteristics and bioavailability of the test compounds in mice were evaluated.
# Experimental animals: male ICR mice, 20-35 g, purchased from Chengdu Dossy Experimental Animals Co., Ltd.
# Experimental method: On the day of the experiment, the ICR mice were randomly grouped according to their body weight. The animals were fasted but with water available overnight before the administration, and fed 4 h after the administration.
# Sampling: Blood was taken from the orbits at specified time points, and placed in an EDTAK2 centrifuge tube. The tube was centrifuged at 5000 rpm for 10 min, and the plasma was collected.
# Time points for plasma collection in G1 group: 0, 5 min, 15 min, 30 min, 1 h, 2 h, 4 h, 7 h, and 24 h.
# Time points for plasma collection in G2 group: 0, 5 min, 15 min, 30 min, 1 h, 2 h, 4 h, 7 h, and 24 h.
# Before analysis and detection, all the samples were stored at -60°C or lower. The samples were analyzed quantitatively by LC-MS/MS. Table 3-1 PK data of test compound (i.e., drug) in mice
# [5] = rat, microsomes, rat liver microsomes 0.5 mg/mL, 1 µM compound, NADPH regeneration system, 37°C
# [6] = rat, microsomes, rat liver microsomes 0.5 mg/mL, 1 µM compound, NADPH regeneration system, 37°C, read-out: CLint(mic)
# [7] = rat liver microsomes 0.5 mg/mL, 1 µM compound, NADPH regeneration system, 37°C
# [8] = rat liver microsomes 0.5 mg/mL, 1 µM compound, NADPH regeneration system, 37°C, 1 µM
Compound,"AUC ([2]; rat, po, read-out: AUC)",pEC50 [3],"AUC ([4]; mouse, po, read-out: AUC)",further results
CC(C)CN1CCN2c3cc(F)c(-c4ccc(Cl)cc4N4CCC[C@H](n5ncc(C(=O)O)c5C(F)F)C4)cc3CC[C@@H]2C1 [Compound 6-2],> 10000 ng·h/mL,> 7.70,> 10000 ng·h/mL,"half-life at 1 µM [1, 5]: 1.95 h; microsomal CLint at 1 µM [1, 6]: 11.8 µL/min/mg"
CC(C)CN1CC=C(c2ccc(-c3ccc(Cl)cc3N3CCCC(n4ncc(C(=O)O)c4C(F)F)C3)cc2)CC1 (stereo not shown) [Trifluoroacetate salt of Compound 11],,> 7.70,,
"CC(C)CN1CCN2c3ccc(-c4ccc(Cl)cc4N4CCC[C@@H](n5ncc(C(=O)O)c5C(F)F)C4)cc3CCC2C1 (single isomer, unassigned) [Compound 8-1]",> 10000 ng·h/mL,> 7.70,,"half-life at 1 µM [1, 5]: 2.53 h; microsomal CLint at 1 µM [1, 6]: 9.13 µL/min/mg; AUC [4]: > 10000 ng·h/mL"
CC(C)CN1CCN2c3cc(F)c(-c4ccc(Cl)cc4N4CCC[C@@H](n5ncc(C(=O)O)c5C(F)F)C4)cc3CC[C@H]2C1 [Compound 5-1],> 10000 ng·h/mL,> 7.70,> 10000 ng·h/mL,"half-life at 1 µM [1, 5]: 2.33 h; microsomal CLint at 1 µM [1, 6]: 9.87 µL/min/mg"
CC(C)CN1CCN(c2ccc(-c3ccc(C(F)F)cc3N3CCC[C@@H](n4ncc(C(=O)O)c4C(F)F)C3)cc2)CC1 [Compound 3-1],> 10000 ng·h/mL,> 7.70,> 10000 ng·h/mL,
CC(C)CN1CCN(c2ccc(-c3c(F)cc(Cl)cc3N3CCCC(n4ncc(C(=O)O)c4C(F)F)C3)cc2)CC1 (racemic) [Compound 1],,> 7.70,,
CC(C)CN1CCN2c3ccc(-c4ccc(Cl)cc4N4CCCC(n5ncc(C(=O)O)c5C(F)F)C4)cc3CCC2C1 (stereo not shown) [Compound 8],,> 7.70,,
CC(C)CN1CC2CCC(C1)N2c1ccc(-c2ccc(Cl)cc2N2CCCC(n3ncc(C(=O)O)c3C(F)F)C2)cc1 (stereo not shown) [Compound 10],,> 7.70,,
CC(C)CN1CCN2c3cc(F)c(-c4ccc(Cl)cc4N4CCCC(n5ncc(C(=O)O)c5C(F)F)C4)cc3CC[C@H]2C1 (stereo partly shown) [Trifluoroacetate salt of Compound 5],,> 7.70,,
CC(C)CN1CCC(c2ccc(-c3ccc(Cl)cc3N3CCCC(n4ncc(C(=O)O)c4C(F)F)C3)cc2)CC1 (stereo not shown) [Trifluoroacetate salt of Compound 12],,> 7.70,,
"CC(C)CN1CCN(c2ccc(-c3ccc(Cl)cc3N3CCC[C@@H](n4ncc(C(=O)O)c4C(F)F)C3)cc2)CC1 [Control compound 1, reference compound]",,,,"half-life at 1 µM [1, 7]: 0.183 h; microsomal CLint at 1 µM ([1]; rat liver microsomes 0.5 mg/mL, 1 µM compound, NADPH regeneration system, 37°C, read-out: CLint(mic)): 126 µL/min/mg"
"CC(C)CN1CCN2c3ccc(-c4ccc(Cl)cc4N4CCC[C@@H](n5ncc(C(=O)O)c5C(F)F)C4)cc3CCC2C1 (single isomer, unassigned) [Compound 9-1]",,> 7.70,> 10000 ng·h/mL,"CLint(mic) [1, 8]: 11.0 µL/min/mg; T1/2 [1, 8]: 2.1 h; AUC [2]: > 10000 ng·h/mL"
"CC(C)CN1CCN(c2ccc(-c3c(F)cc(Cl)cc3N3CCCC(n4ncc(C(=O)O)c4C(F)F)C3)cc2)CC1 (single isomer, unassigned) [Compound 1-1]",,,,"half-life at 1 µM [1, 7]: 0.727 h; microsomal CLint at 1 µM ([1]; rat, microsomes): 31.8 µL/min/mg; AUC ([2]; rat, in vivo, po, read-out: AUC): > 10000 ng·h/mL; AUC ([4]; mouse, in vivo, po, read-out: AUC): > 10000 ng·h/mL"
CC(C)CN1CCN2c3cc(F)c(-c4ccc(Cl)cc4N4CCC[C@@H](n5ncc(C(=O)O)c5C(F)F)C4)cc3CC[C@@H]2C1 [Compound 6-1],> 10000 ng·h/mL,> 7.70,> 10000 ng·h/mL,"half-life at 1 µM [1, 5]: 1.87 h; microsomal CLint at 1 µM [1, 6]: 12.4 µL/min/mg"
CC(C)CN1CCN2c3cc(F)c(-c4ccc(Cl)cc4N4CCC[C@H](n5ncc(C(=O)O)c5C(F)F)C4)cc3CC[C@H]2C1 [Compound 5-2],,> 7.70,> 10000 ng·h/mL,
CC(C)CN1CCN(c2ccc(-c3ccc(C(F)F)cc3N3CCC[C@H](n4ncc(C(=O)O)c4C(F)F)C3)cc2)CC1 [Compound 3-2],,> 7.70,,

# Reference: patent EP4786461A1, “PYRAZOLE CARBOXYLIC ACID DERIVATIVE AND USE THEREOF IN MEDICINE” (Haisco Pharmaceutical Group Co., Ltd., priority 2023, dated 2025)
